Results as given in patent US8247426B2, “Crystalline irinotecan hydrochloride and methods for its preparation” (Antibioticos S.p.A., priority 2008, dated 2012).
Counter-ions that a name gives are not always drawn.

Experiment: solubility in water at room temperature
Format: physicochemical

solubility: > 20 mg/mL
SMILES: CCc1c2c(nc3ccc(OC(=O)N4CCC(N5CCCCC5)CC4)cc13)-c1cc3c(c(=O)n1C2)COC(=O)[C@]3(O)CC [form H, irinotecan hydrochloride]
